Measured values taken from patent publication US9938261B2, “Heterocyclic compounds and methods of use thereof” (AMBIT BIOSCIENCES CORPORATION, priority 2011, dated 2018).

Tests used:
[1] = target: T1, CSF1R (Homo sapiens, UniProt P07333); experiment: Competition binding assay, CSF1R Kd; parameters: made in house; conditions: competition binding
Outline: (§1)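 Read-out is quantitative PCR of kinase recovered from affinity beads after competition with test compound. Binding reached equilibrium over 1 hour at room temperature; Kd values come from eleven-point threefold serial dilutions.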

[2] = target: T2, PDGFRβ (Homo sapiens, UniProt P09619); experiment: Competition binding assay, PDGFRβ Kd; conditions: competition binding
T2 construct: made in house
Outline: as §1

[3] = target: T1, CSF1R; experiment: HEK293 CSF1R phosphorylation MSD assay; type: cell-based; parameters: expressed in transfected cells; host or cells: HEK293; conditions: HEK293 cells, M-CSF stimulated CSF1R phosphorylation, MSD; read-out: HEK293 pCSF1R M-CSF MSD:IC50
Outline: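 Ligand-induced CSF1R autophosphorylation was measured by MSD sandwich assay: CSF1R-FKBP from lysates captured via FK506, anti-phosphotyrosine readout. Cells were exposed to compound for 2 h (9-point, half-log, 0.5% DMSO) before 5 min 50 ng/mL M-CSF. Reported IC50 is the mean of duplicate-plate IC50s relative to DMSO control.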

T2 sequence (P09619 33-1106): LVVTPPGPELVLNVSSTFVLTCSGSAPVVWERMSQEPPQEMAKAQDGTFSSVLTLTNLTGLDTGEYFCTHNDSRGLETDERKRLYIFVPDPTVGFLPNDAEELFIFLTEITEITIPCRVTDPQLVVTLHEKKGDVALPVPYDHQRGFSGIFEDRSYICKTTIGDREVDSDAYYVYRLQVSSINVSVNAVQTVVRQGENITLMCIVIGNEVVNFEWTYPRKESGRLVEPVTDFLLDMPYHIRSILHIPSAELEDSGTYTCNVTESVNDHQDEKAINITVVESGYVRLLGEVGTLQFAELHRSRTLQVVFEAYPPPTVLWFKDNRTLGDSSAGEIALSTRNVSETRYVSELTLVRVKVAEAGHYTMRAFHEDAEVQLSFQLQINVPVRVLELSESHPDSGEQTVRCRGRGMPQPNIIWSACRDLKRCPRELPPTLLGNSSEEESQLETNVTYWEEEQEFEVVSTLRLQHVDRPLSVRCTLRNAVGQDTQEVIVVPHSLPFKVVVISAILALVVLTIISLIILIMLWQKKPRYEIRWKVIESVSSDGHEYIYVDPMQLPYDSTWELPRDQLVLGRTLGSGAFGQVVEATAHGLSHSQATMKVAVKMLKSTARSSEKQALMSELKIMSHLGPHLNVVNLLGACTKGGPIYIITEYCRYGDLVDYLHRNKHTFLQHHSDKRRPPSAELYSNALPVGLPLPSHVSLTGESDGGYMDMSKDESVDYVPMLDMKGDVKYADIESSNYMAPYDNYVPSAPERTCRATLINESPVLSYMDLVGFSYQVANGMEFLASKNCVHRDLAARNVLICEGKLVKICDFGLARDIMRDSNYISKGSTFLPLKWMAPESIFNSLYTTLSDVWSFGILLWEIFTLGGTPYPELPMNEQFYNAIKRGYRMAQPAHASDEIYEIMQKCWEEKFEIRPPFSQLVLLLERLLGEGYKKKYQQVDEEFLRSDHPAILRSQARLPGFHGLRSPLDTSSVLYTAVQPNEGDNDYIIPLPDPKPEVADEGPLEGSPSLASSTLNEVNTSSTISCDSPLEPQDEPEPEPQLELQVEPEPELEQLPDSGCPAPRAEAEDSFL
T1 sequence (P07333 20-972): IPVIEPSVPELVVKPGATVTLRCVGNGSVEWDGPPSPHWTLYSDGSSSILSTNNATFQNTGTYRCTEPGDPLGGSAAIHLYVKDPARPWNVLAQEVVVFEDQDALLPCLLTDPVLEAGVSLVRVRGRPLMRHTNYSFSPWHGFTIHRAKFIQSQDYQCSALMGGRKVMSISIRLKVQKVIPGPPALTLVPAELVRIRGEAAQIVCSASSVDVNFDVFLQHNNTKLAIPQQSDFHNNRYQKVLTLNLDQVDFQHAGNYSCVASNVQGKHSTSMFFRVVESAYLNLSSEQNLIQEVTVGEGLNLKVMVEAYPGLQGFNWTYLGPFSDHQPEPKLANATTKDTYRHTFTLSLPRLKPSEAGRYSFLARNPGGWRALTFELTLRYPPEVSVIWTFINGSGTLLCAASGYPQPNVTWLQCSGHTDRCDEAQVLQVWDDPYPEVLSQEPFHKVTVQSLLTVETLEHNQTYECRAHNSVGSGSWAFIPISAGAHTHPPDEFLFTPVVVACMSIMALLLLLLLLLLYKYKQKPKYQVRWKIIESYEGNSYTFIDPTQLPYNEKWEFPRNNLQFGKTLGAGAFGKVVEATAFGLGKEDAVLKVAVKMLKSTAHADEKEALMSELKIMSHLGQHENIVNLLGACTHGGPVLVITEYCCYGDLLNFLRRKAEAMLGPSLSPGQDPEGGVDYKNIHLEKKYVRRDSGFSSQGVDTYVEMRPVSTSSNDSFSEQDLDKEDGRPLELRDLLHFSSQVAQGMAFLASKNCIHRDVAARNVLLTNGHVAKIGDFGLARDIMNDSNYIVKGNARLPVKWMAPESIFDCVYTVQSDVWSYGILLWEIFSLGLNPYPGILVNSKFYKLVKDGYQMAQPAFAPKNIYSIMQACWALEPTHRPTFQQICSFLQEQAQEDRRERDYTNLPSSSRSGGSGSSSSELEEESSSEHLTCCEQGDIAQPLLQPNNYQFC

Row | SMILES | Kd [1] | Kd [2] | IC50 [3]
1 | CS(=O)(=O)c1ccc2ncn(Cc3ccc4nc(N[C@@H]5CCCC[C@H]5O)sc4c3)c2c1 [Example 113, (1R,2R)-2-((6-((6-(methylsulfonyl)-1H-benzo[d]imidazol-1-yl)methyl)benzo[d]thiazol-2-yl)amino)cyclohexanol] | 20 to 50 nM | > 2000 nM | 200 to 500 nM
2 | Cc1cc2ncn(Cc3ccc4nc(N[C@@H]5CCCC[C@H]5O)sc4c3)c2cc1C [Example 119, (1R,2R)-2-((6-((5,6-dimethyl-1H-benzo[d]imidazol-1-yl)methyl)benzo[d]thiazol-2-yl)amino)cyclohexanol] | 5 to 20 nM | ≤ 50 nM | 50 to 200 nM
3 | CC(=O)c1ccc2ncn(Cc3ccc4nc(N[C@@H]5CCCC[C@H]5O)sc4c3)c2c1 [Example 120, 1-(1-((2-(((1R,2R)-2-hydroxycyclohexyl)amino)benzo[d]thiazol-6-yl)methyl)-1H-benzo[d]imidazol-6-yl)ethanone] | 5 to 20 nM | 50 to 500 nM | 50 to 200 nM
4 | O[C@@H]1CCCC[C@H]1Nc1nc2c(Cl)cc(Cc3cnc4ccc(N5CCOCC5)nn34)cc2s1 [Example 156, (1R,2R)-2-((4-chloro-6-((6-morpholinoimidazo[1,2-b]pyridazin-3-yl)methyl)benzo[d]thiazol-2-yl)amino)cyclohexanol] | 5 to 20 nM | 500 to 2000 nM | 200 to 500 nM
5 | Cc1ccc2c(c1)ncn2Cc1ccc2nc(N[C@@H]3CCCC[C@H]3O)sc2c1 [Example 127, (1R,2R)-2-((6-((5-methyl-1H-benzo[d]imidazol-1-yl)methyl)benzo[d]thiazol-2-yl)amino)cyclohexanol] | 5 to 20 nM | ≤ 50 nM | 50 to 200 nM
6 | COc1ccc2ncn(Cc3ccc4nc(N[C@@H]5CCCC[C@H]5O)oc4c3)c2c1 [Example 152, (1R,2R)-2-((6-((6-methoxy-1H-benzo[d]imidazol-1-yl)methyl)benzo[d]oxazol-2-yl)amino)cyclohexanol] | 5 to 20 nM | 50 to 500 nM | ≤ 50 nM
7 | O[C@@H]1CCCC[C@H]1Nc1nc2ccc(Cn3cnc4cc(Cl)c(Cl)nc43)cc2s1 [Example 137, (1R,2R)-2-((6-((5,6-dichloro-3H-imidazo[4,5-b]pyridin-3-yl)methyl)benzo[d]thiazol-2-yl)amino)cyclohexanol] | ≤ 5 nM | ≤ 50 nM | ≤ 50 nM
8 | O[C@@H]1CCCC[C@H]1Nc1nc2ccc(Cn3cnc4cc(C(F)(F)F)ccc43)cc2s1 [Example 130, (1R,2R)-2-((6-((5-(trifluoromethyl)-1H-benzo[d]imidazol-1-yl)methyl)benzo[d]thiazol-2-yl)amino)cyclohexanol] | 5 to 20 nM | ≤ 50 nM | 200 to 500 nM
9 | O=c1c(N2CCOCC2)nccn1Cc1ccc2nc(N[C@@H]3CCCC[C@H]3O)sc2c1 [Example 222, 1-((2-(((1R,2R)-2-hydroxycyclohexyl)amino)benzo[d]thiazol-6-yl)methyl)-3-morpholinopyrazin-2(1H)-one] | 20 to 50 nM | 500 to 2000 nM | > 500 nM
10 | CCOc1ccc2c(c1)ncn2Cc1ccc2nc(N[C@@H]3CCCC[C@H]3O)sc2c1 [Example 138, (1R,2R)-2-((6-((5-ethoxy-1H-benzo[d]imidazol-1-yl)methyl)benzo[d]thiazol-2-yl)amino)cyclohexanol] | ≤ 5 nM | ≤ 50 nM | ≤ 50 nM
11 | CC(O)c1cnc2c(c1)ncn2Cc1ccc2nc(N[C@@H]3CCCC[C@H]3O)sc2c1 (stereo partly drawn) [Example 115, (1R,2R)-2-((6-((6-((R,S)-1-hydroxyethyl)-3H-imidazo[4,5-b]pyridin-3-yl)methyl)benzo[d]thiazol-2-yl)amino)cyclohexanol] | > 50 nM | 50 to 500 nM | 50 to 200 nM
12 | N#Cc1ccc2ncn(Cc3ccc4nc(N[C@@H]5CCCC[C@H]5O)sc4c3)c2c1 [Example 111, 1-((2-(((1R,2R)-2-hydroxycyclohexyl)amino)benzo[d]thiazol-6-yl)methyl)-1H-benzo[d]imidazole-6-carbonitrile] | 5 to 20 nM | 500 to 2000 nM | 50 to 200 nM
13 | CC(C)(O)c1cnc2c(c1)ncn2Cc1ccc2nc(N[C@@H]3CCCC[C@H]3O)sc2c1 [Example 109, (1R,2R)-2-((6-((6-(2-hydroxypropan-2-yl)-3H-imidazo[4,5-b]pyridin-3-yl)methyl)benzo[d]thiazol-2-yl)amino)cyclohexanol] | 20 to 50 nM | 50 to 500 nM | 50 to 200 nM
14 | N#Cc1ccc2c(c1)ncn2Cc1ccc2nc(N[C@@H]3CCCC[C@H]3O)sc2c1 [Example 108, 1-((2-(((1R,2R)-2-hydroxycyclohexyl)amino)benzo[d]thiazol-6-yl)methyl)-1H-benzo[d]imidazole-5-carbonitrile] | 5 to 20 nM | 500 to 2000 nM | 50 to 200 nM
15 | O[C@@H]1CCCC[C@H]1Nc1nc2ncc(Cn3cnc4cccnc43)cc2s1 [Example 114, (1R,2R)-2-((6-((3H-imidazo[4,5-b]pyridine-3-yl)methyl)thiazolo[4,5-b]pyridine-2-yl)amino)cyclohexanol] | > 50 nM | 500 to 2000 nM | 50 to 200 nM
16 | O=C(O)/C=C/c1ccc2c(c1)ncn2Cc1ccc2nc(N[C@@H]3CCCC[C@H]3O)sc2c1 [Example 224, (E)-3-(1-((2-(((1R,2R)-2-hydroxycyclohexyl)amino)benzo[d]thiazol-6-yl)methyl)-1H-benzo[d]imidazol-5-yl)acrylic acid] | 5 to 20 nM | 50 to 500 nM | > 500 nM
17 | O[C@@H]1CCCC[C@H]1Nc1nc2ccc(Cn3cnc4cncnc43)cc2o1 [Example 118, (1R,2R)-2-((6-((9H-purin-9-yl)methyl)benzo[d]oxazol-2-yl)amino)cyclohexanol] | 20 to 50 nM | – | > 500 nM

Further lines, results first:

Row | Kd [1] | Kd [2] | IC50 [3] | SMILES
18 | ≤ 5 nM | 50 to 500 nM | ≤ 50 nM | O[C@@H]1CCCC[C@H]1Nc1nc2ccc(Cc3cnc4ccc(N5CCOCC5)nn34)cc2s1 [Example 155, (1R,2R)-2-((6-((6-morpholinoimidazo[1,2-b]pyridazin-3-yl)methyl)benzo[d]thiazol-2-yl)amino)cyclohexanol]
19 | 20 to 50 nM | 500 to 2000 nM | > 500 nM | O[C@@H]1CCCC[C@H]1Nc1nc2ccc(Cc3cnc4sccn34)cc2s1 [Example 157, (1R,2R)-2-((6-(imidazo[2,1-b]thiazol-5-ylmethyl)benzo[d]thiazol-2-yl)amino)cyclohexanol]
20 | 5 to 20 nM | 500 to 2000 nM | 200 to 500 nM | O[C@@H]1CCCC[C@H]1Nc1nc2ccc(Cc3cnc4ccc(-n5cccn5)cn34)cc2s1 [Example 159, (1R,2R)-2-((6-((6-(1H-pyrazol-1-yl)imidazo[1,2-a]pyridin-3-yl)methyl)benzo[d]thiazol-2-yl)amino)cyclohexanol]
21 | 5 to 20 nM | 50 to 500 nM | ≤ 50 nM | O[C@@H]1[C@H](O)CCC[C@H]1Nc1nc2ccc(Cc3cnc4cc(-n5nccn5)ccn34)cc2s1 [Example 231, (1R,2S,3R)-3-((6-((7-(2H-1,2,3-triazol-2-yl)imidazo[1,2-a]pyridin-3-yl)methyl)benzo[d]thiazol-2-yl)amino)cyclohexane-1,2-diol]
22 | ≤ 5 nM | ≤ 50 nM | ≤ 50 nM | O[C@@H]1CCCC[C@H]1Nc1nc2ccc(Cn3cnc4cc(F)ccc43)cc2s1 [Example 129, (1R,2R)-2-((6-((5-fluoro-1H-benzo[d]imidazol-1-yl)methyl)benzo[d]thiazol-2-yl)amino)cyclohexanol]
23 | ≤ 5 nM | ≤ 50 nM | ≤ 50 nM | O[C@@H]1CCCC[C@H]1Nc1nc2ccc(Cn3cnc4cc(-n5cccn5)ccc43)cc2s1 [Example 160, (1R,2R)-2-((6-((5-(1H-pyrazol-1-yl)-1H-benzo[d]imidazol-1-yl)methyl)benzo[d]thiazol-2-yl)amino)cyclohexanol]
24 | > 50 nM | 50 to 500 nM | > 500 nM | O[C@H]1[C@@H](O)CCC[C@H]1Nc1nc2ccc(Cn3cnc4cc(F)cnc43)cc2s1 [Example 228, (1S,2R,3R)-3-((6-((6-fluoro-3H-imidazo[4,5-b]pyridin-3-yl)methyl)benzo[d]thiazol-2-yl)amino)cyclohexane-1,2-diol]
25 | 5 to 20 nM | 50 to 500 nM | 50 to 200 nM | O[C@@H]1CCCC[C@H]1Nc1nc2ccc(Cc3cnc4cc(-n5cncn5)ccn34)cc2s1 [Example 169, (1R,2R)-2-((6-((7-(1H-1,2,4-triazol-1-yl)imidazo[1,2-a]pyridin-3-yl)methyl)benzo[d]thiazol-2-yl)amino)cyclohexanol]
26 | 5 to 20 nM | 500 to 2000 nM | 200 to 500 nM | CNC(=O)c1ccc2ncc(Cc3ccc4nc(N[C@@H]5CCCC[C@H]5O)sc4c3)n2n1 [Example 143, 3-((2-(((1R,2R)-2-hydroxycyclohexyl)amino)benzo[d]thiazol-6-yl)methyl)-N-methylimidazo[1,2-b]pyridazine-6-carboxamide]
27 | 5 to 20 nM | 50 to 500 nM | ≤ 50 nM | O[C@@H]1CCCC[C@H]1Nc1nc2ccc(Cn3cnc4cc(-n5cncn5)ccc43)cc2s1 [Example 161, (1R,2R)-2-((6-((5-(1H-1,2,4-triazol-1-yl)-1H-benzo[d]imidazol-1-yl)methyl)benzo[d]thiazol-2-yl)amino)cyclohexanol]
28 | 5 to 20 nM | ≤ 50 nM | 50 to 200 nM | O[C@@H]1[C@H](O)CCC[C@H]1Nc1nc2ccc(Cn3cnc4cc(N5CCOCC5)ccc43)cc2s1 [Example 235, (1R,2S,3R)-3-((6-((5-morpholino-1H-benzo[d]imidazol-1-yl)methyl)benzo[d]thiazol-2-yl)amino)cyclohexane-1,2-diol]
